Assay results taken from patent US7371766B2, “Curcumin analogs with anti-tumor and anti-angiogenic properties” (Emory University, priority 1999, dated 2008).
Read-outs that look alike come from different tables or passages of the source.

Assays:
MOLT-4 = assay: cells; conditions: Homo sapiens, MOLT-4, 48 h
SR = assay: cells; conditions: Homo sapiens, 48 h
SK-MEL-5 = assay: cells; conditions: Homo sapiens, SK-MEL-5, 48 h
HCT-15 = assay: cells; conditions: Homo sapiens, HCT-15, 48 h
MCF-7 = assay: cells; conditions: Homo sapiens, MCF7, 48 h
EKVX = assay: cells; conditions: Homo sapiens, 48 h
TK-10 = assay: cells; conditions: Homo sapiens, TK-10, 48 h
OVCAR-8 = assay: cells; conditions: Homo sapiens, OVCAR-8, 48 h
M14 = assay: cells; conditions: Homo sapiens, M14, 48 h
UO-31 = assay: cells; conditions: Homo sapiens, UO-31, 48 h
SK-MEL-2 = assay: cells; conditions: Homo sapiens, SK-MEL-2, 48 h
IGROV1 = assay: cells; conditions: Homo sapiens, IGROV-1, 48 h
ACHN = assay: cells; conditions: Homo sapiens, 48 h
SNB-75 = assay: cells; conditions: Homo sapiens, SNB-75, 48 h
RPMI-7951 human melanoma = assay: Neutral Red Assay, cell viability, RPMI-7951; conditions: Homo sapiens
NCI-H522 = assay: cells; conditions: Homo sapiens, NCI-H522, 48 h
SNB-19 = assay: cells; conditions: Homo sapiens, SNB-19, 48 h
COLO 205 = assay: cells; conditions: Homo sapiens, COLO 205, 48 h
RXF 393 = assay: cells; conditions: Homo sapiens, RXF 393, 48 h
SN12C = assay: cells; conditions: Homo sapiens, 48 h
HS 578T = assay: cells; conditions: Homo sapiens, 48 h
T-47D = assay: cells; conditions: Homo sapiens, T47D, 48 h
UACC-257 = assay: cells; conditions: Homo sapiens, UACC-257, 48 h
SK-OV-3 = assay: cells; conditions: Homo sapiens, SK-OV-3, 48 h
SF-268 = assay: cells; conditions: Homo sapiens, SF-268, 48 h
[1] = tested on: Sixty human tumor cell lines; assay: cells; conditions: 48 h
A549 = assay: cells; conditions: Homo sapiens, A549, 48 h
OVCAR-5 = assay: cells; conditions: Homo sapiens, OVCAR-5, 48 h
SK-MEL-28 = assay: cells; conditions: Homo sapiens, SK-MEL-28, 48 h
[2] = read-out: Median Growth Inhibitory Concentration (GI50)
[3] = read-out: Median Lethal Concentration (LC50)
[4] = RPMI-7951, 72 h, read-out: Neutral Red Uptake, %
[5] = RPMI-7951, read-out: Cell Viability

O=C(C=Cc1ccc(F)cc1F)C=Cc1ccc(F)cc1F [EF9, 1,5-Bis(2,4-difluorophenyl)penta-1,4-dien-3-one]
GI50 (MOLT-4; [2]): 9.3 µM
CC50 (MOLT-4; [3]): > 100 µM
GI50 (SR; [2]): 1.2 µM
CC50 (SR; [3]): 77.9 µM
GI50 (SK-MEL-5; [2]): 12.1 µM
CC50 (SK-MEL-5; [3]): 53.1 µM
GI50 (HCT-15; [2]): 4.9 µM
CC50 (HCT-15; [3]): 64.7 µM
GI50 (MCF-7; [2]): 3 µM
CC50 (MCF-7; [3]): 42.2 µM
GI50 (EKVX; [2]): 11.8 µM
CC50 (EKVX; [3]): 49.1 µM
GI50 (TK-10; [2]): 17.9 µM
CC50 (TK-10; [3]): 56.5 µM
GI50 (OVCAR-8; [2]): 3.4 µM
CC50 (OVCAR-8; [3]): 85.3 µM
GI50 (M14; [2]): 4.1 µM
CC50 (M14; [3]): 48.6 µM
GI50 (UO-31; [2]): 9.6 µM
CC50 (UO-31; [3]): 49.5 µM
GI50 (SK-MEL-2; [2]): 14.5 µM
CC50 (SK-MEL-2; [3]): 58.9 µM
GI50 (IGROV1; [2]): 3.8 µM
CC50 (IGROV1; [3]): 46.2 µM
GI50 (ACHN; [2]): 16.5 µM
CC50 (ACHN; [3]): 54.8 µM
GI50 (SNB-75; [2]): 11.2 µM
CC50 (SNB-75; [3]): 48.8 µM
viability at 5 µM (RPMI-7951 human melanoma; [4]): 88%
viability at 20 µM (RPMI-7951 human melanoma; [4]): 11%
viability at 5 µM (RPMI-7951 human melanoma; [5]): 92%
viability at 20 µM (RPMI-7951 human melanoma; [5]): 70%
GI50 (NCI-H522; [2]): 13.4 µM
CC50 (NCI-H522; [3]): 57.1 µM
GI50 (SNB-19; [2]): 14.7 µM
CC50 (SNB-19; [3]): 58.8 µM
GI50 (COLO 205; [2]): 7.6 µM
CC50 (COLO 205; [3]): 52.8 µM
GI50 (RXF 393; [2]): 2.3 µM
CC50 (RXF 393; [3]): 17.9 µM
GI50 (SN12C; [2]): 17.1 µM
CC50 (SN12C; [3]): 62.3 µM
GI50 (HS 578T; [2]): 9.9 µM
CC50 (HS 578T; [3]): > 100 µM
GI50 (T-47D; [2]): 4.4 µM
CC50 (T-47D; [3]): 56.1 µM
GI50 (UACC-257; [2]): 16 µM
CC50 (UACC-257; [3]): 62.1 µM
GI50 (SK-OV-3; [2]): 15.4 µM
CC50 (SK-OV-3; [3]): 53.7 µM
GI50 (SF-268; [2]): 13.7 µM
CC50 (SF-268; [3]): > 100 µM
GI50 ([1]; read-out: Median Growth Inhibitory Concentration (GI50), Mean): 7.2 µM
CC50 ([1]; read-out: Median Lethal Concentration (LC50), Mean): 52.5 µM
GI50 (A549; [2]): 8.9 µM
CC50 (A549; [3]): 71 µM
GI50 (OVCAR-5; [2]): 20 µM
CC50 (OVCAR-5; [3]): 63.3 µM
GI50 (SK-MEL-28; [2]): 18.6 µM
CC50 (SK-MEL-28; [3]): 61.1 µM
